Reference: patent publication US11198897B2, “Rapid antibiotic susceptibility testing by tracking sub-micron scale motion of single bacterial cells” (Arizona Board of Regents on behalf of Arizona State …, priority 2017, dated 2021)

Columns and labels:
[1] = tested on: UPEC cells spiked in human urine; assay: Culture AST: bactericidal activity against UPEC in spiked urine samples by plating on Luria agar; assay type: cell-based, uropathogenic E. coli
Method: (§1) Broth microdilution assay was used to determine the polymyxin B MIC and MBC following a standard protocol.^54 Exponential phase UPEC CFT073 cultures were grown as described above, and bacterial suspensions (1×10^8 cfu/ml) were prepared in Mueller Hinton broth. Bacterial suspensions (100 μl of 5×10^6, 10^7, or 10^8 cfu/ml) were added to wells of 96-well microtiter plates containing polymyxin B (0.125-8 μg/ml). The MIC was determined by measuring the absorbance at 600 nm after 16 h standing incubation at 37° C. Cell viability and MBC values were determined by plating duplicate 10-fold serial dilutions for each sample onto Luria Broth agar plates and enumerating colonies after 16 h incubation at 37° C.
Referring now to FIG. 17A-FIG. 17F plots of bactericidal activity of polymyxin B against UPEC in spiked urine samples are shown. UPEC cells were added to human urine samples and exposed to different polymyxin B concentrations. At indicated times, 5 μl of each suspension was inoculated onto Luria agar. After incubation at 37° C. for 16 h, colonies were enumerated and recorded as cfu/ml. The bars with vertical striping represent the initial cfu/ml of UPEC cells in urine, and bars with horizontal striping represent cfu/ml of UPEC cells upon exposure to clinically-relevant concentrations of polymyxin B (antibiotics added immediately after the baseline measurement) in urine.

[2] = tested on: UPEC cells in human urine; assay: Rapid AST by motion tracking (DAVG) of UPEC cells in human urine samples; assay type: cell-based, uropathogenic E. coli
Method: Referring now to FIG. 5A-5F, plots of DAVG of UPEC cells in human urine exposed to increasing concentrations of polymyxin B are there illustrated. UPEC cells (5×10^6 cfu/ml) were added to human urine samples, and DAVG was determined over time in the absence and presence of clinically-relevant concentrations of polymyxin B. The bars with vertical striping represent the baseline DAVG measurement of UPEC cells in urine. DAVG measurement of UPEC cells upon exposure to clinically-relevant concentrations of polymyxin B (bars with horizontal striping; antibiotics added immediately after the baseline measurement) and a high, bactericidal concentration of polymyxin B (bars with diagonal striping, 0.5 mg/ml added after the 90-min measurement). DAVG of cells in wells with (a) 0, (b) 0.25, (c) 1, (d) 2, (e) 4, and (f) 8 μg/ml of polymyxin B. *, p<0.05; ns, not significant.
To test the feasibility of an example of a method for analyzing clinically relevant samples, urine samples collected from healthy patients were spiked with UPEC bacterial cells. Following surface tethering, images were recorded from six different wells with polymyxin B doses varying from 0 to 8 μg/ml.
By repeating these experiments with increasing concentrations of UPEC cells in urine samples, the polymyxin B MBC90 min was determined to be between 4 and 8 μg/ml (Table 1). These MBC data corroborated the previous experiments with 5×10^6 cfu/ml and standard culturing methods which proceeded for 16 h (see also FIG. 17A-FIG. 17F).
An aliquot of frozen E. coliO157:H7 or E. coli CFT073 strain was thawed and used to inoculate 3 ml of Luria broth (LB) one day before the experiments. The overnight, saturated culture grown at 37° C. was diluted into fresh LB at a concentration of ˜10^7 cfu/ml and grown at 37° C. with gentle rotary mixing until the cultures reached an OD600 of 0.56, indicating the mid-logarithmic phase of growth. The corresponding concentration of the bacteria was 4.67×10^8 cfu/ml. Bacterial cells were collected by centrifugation at 2000×g for 15 min and resuspended in 1 ml PBS (1×) to an OD of 0.56. […]

UPEC CFT073 = assay: Broth microdilution assay (MIC, MBC) in Mueller Hinton broth; assay type: cell-based, uropathogenic E. coli
Method: as §1
Referring now to FIG. 15, a plot measuring inhibition of UPEC in Mueller Hinton broth (MHB) after incubation with increasing polymyxin B concentrations is shown. Growth inhibition of UPEC in Mueller Hinton broth (MHB) after incubation with increasing polymyxin B concentrations. UPEC cells (5×10^6/ml) were incubated in MHB for 16 h at 37° C., followed by optical density measurements (OD600). Average and standard deviation OD600 measurements collected from triplicate experiments were plotted.
Referring now to FIG. 16, a table illustrating growth inhibition and bactericidal activity of the antibiotic polymyxin B is shown. After determining growth inhibition after […]

E. coli O157:H7 = assay: Sub-μm motion tracking of antibody-tethered E. coli O157:H7 cells exposed to antibiotic; assay type: cell-based, Escherichia coli; details: for Distance (root-mean-square displacement of cell center over 20 sec) of a single cell: 0.5 mg/ml polymyxin B
Excerpt: Referring now to FIG. 2A an image of an E. coli O157:H7 bacterial cell with superimposed motion of the cell center over 20 sec shown as darkened dots is shown. E. coli O157:H7 cells 202 tethered to the glass slide were imaged. […] Scale Bar 203 is 1 μm. 43 The center of each bacterial cell was identified in each image frame (described in more detail below with reference to FIG. 6A-FIG. 6D) and plotted as data points 204 in FIG. 2A′.
As there shown, plot 202 plots motion data 204 in nm in X and Y coordinates ranging from −400 nm to 400 nm. The center positions of the bacterial cell (center) at different moments are shown and reveal the sub-μm scale motion of the cell. For quantitative analysis of the sub-μm motion of the bacterial cell, “Distance” is defined as the root-mean-square of the position over 20 seconds. Note that the motion ranges from about −200 nm to 200 nm displacement along both coordinates.
Referring now to FIG. 3A, images of a bacterial cell and displacement of the cell center in 1×PBS before (0 min) and after polymyxin B addition (2 and 5 min) are shown. Images 301, 302, 303 of a bacterial cell and displacement of the cell center 310 in 1×PBS before (0 min) and after polymyxin B addition (2 and 5 min). Antibiotic effects on the sub-μm motion were examined using a lethal dose of polymyxin B (0.5 mg/ml). Images 301, 302, 303 show the bright-field images of an alive bacterial cell before, 2 min, and 5 min, respectively after exposure to 0.5 mg/ml polymyxin B, where the positions of the bacterial cell before and after the exposure to polymyxin B, represented by indicia 310, 310A and 310B respectively. Scale bar 311 is set at 1 μm. #, p=0.065.
The average E. coli O157:H7 distance over 20 sec. in 1×PBS was 278 nm as indicated by bar 350, which reduced to 225 nm within 2 min after addition of 0.5 mg/ml polymyxin B, indicated by bar 352 and further to 65 nm at 5 min post-antibiotic exposure as plotted in plot 324 and represented by bar 354.
A robust AST method must work for a bacterial population that contains a mixture of loosely and tightly bound cells. […] For this mixed population of bound cells, the DAVG was 265 nm (FIG. 3C) before the addition of polymyxin B and dropped to 123 nm at 10 min post-antibiotic exposure (FIG. 3D).
Clean BK7 glass coverslips were coated with 1.5 nm chromium and 48 nm gold and used as sensing chips. The chips were rinsed with deionized water and ethanol multiple times followed by drying with nitrogen gas and cleaning with a hydrogen flame. For antibody surface, the cleaned chips were submerged in 1 mM PEG/PEG-COOH ethanol solution and left in the dark for 24 h to coat a PEG/PEG-COOH self-assembled monolayer (SAM) on each chip. The PEG/PEG-COOH SAM-coated chips were activated with 500 μl of a freshly prepared mixture of 0.1 M NHS and 0.4M EDC in 1:1 ratio to produce NHS ester receptors, which react with the primary amine groups on the antibodies via an amide bond. Chips with activated PEG/PEG-COOH SAM were cleaned with deionized water and blown dry with nitrogen gas. […]
(§2) To quantify bacterial motion, region props MATLAB command was used to obtain the “Centroid” 603 for each segmented cell in the binary images. The centroid is the X and Y coordinates of the bacterial cell center and is calculated as the mean of all non-zero pixels which the bacterial cell occupies. […]

UPEC cells = assay: Rapid AST by motion tracking (DAVG) of APTES-tethered UPEC cells in 1×PBS; assay type: cell-based, uropathogenic E. coli
Method: To apply the above motion-tracking method to AST of the clinically relevant UPEC strain, UPEC cells were tethered to the glass surface via APTES surface chemistry and conjugation to the amine group of a bacterial surface protein. Antibiotic dose-dependent experiments were performed in a multiplexed format using multi-well slides and a 40× objective. First, baseline images were captured at 0 min for each well. Subsequently, polymyxin B at clinically relevant concentrations (4, 2, 0.5, and 0.25 μg/ml) was added to different wells, and images were recorded at 15 min intervals for 75 min. Finally, as a positive control, a bactericidal dose (0.5 mg/ml) of polymyxin B was added to all wells, and images were recorded after incubation for 15 min (at 90 min). The control well (Well 1) initially harbored 100 tethered cells (as described below with reference to FIG. 8A) with an initial DAVG of 228 nm (FIG. 4A). Over time (0-75 min), the number of cells on the surface increased gradually (as described below with reference to FIG. 8A) due to replication of the surface-tethered cells (as described below with respect to FIG. 9A-10B). During the first 15 min, DAVG increased from 228 nm to 388 nm, followed by a gradual decrease from 388 to 227 nm over 75 min (FIG. 4A). […] DAVG vs. time was analyzed for polymyxin B varying between 0.5-4 μg/ml (FIG. 4B-FIG. 4E), showing clear correlation between the sub-μm motion and antibiotic concentration. […]
All E. coli O157:H7 experiment image sequences were collected at 106 fps at a pixel resolution of 640×480 using the Pike-032B CCD camera. […] The stage was translated to each well sequentially at the marker spot area and recorded 5 sec image sequences for each well. […]
as §2

[3] = after addition of 0.5 mg/ml polymyxin B

polymyxin B
Colonies on Luria agar after bactericidal concentration ([1]; 0.5 mg/ml added after the 90-min measurement, additional 15-min incubation): no colonies were detected
MBC against UPEC cells spiked in human urine ([1]; plating on Luria agar, 16 h at 37° C.): 2 µg/mL
DAVG change in urine ([2]; 4 and 8 μg/ml polymyxin B, p<0.05, to values similar to lethal 0.5 mg/ml dose): decreased significantly
DAVG change over time in urine ([2]; 90 min incubation with 0.25, 1, or 2 μg/ml polymyxin B): either remained unchanged or increased
Rapid AST MBC 90 min ([2]; UPEC concentration in urine 10^8 cfu/ml): 4 µg/mL
Standard incubation (16 h) MBC (UPEC CFT073; quantitative plating after 16 h incubation): 2 µg/mL
Minimum inhibitory concentration (MIC) (UPEC CFT073; standard microdilution broth assay, 16 h incubation): 1 µg/mL
Distance (root-mean-square displacement of cell center over 20 sec) of a single cell (E. coli O157:H7; 2 min after addition, 278 nm in 1×PBS before): 225 nm
Distance (root-mean-square displacement of cell center over 20 sec) of a single cell (E. coli O157:H7; 5 min post-antibiotic exposure, 278 nm before): 65 nm
Viable cells on overnight culturing after exposure (E. coli O157:H7; 5 min exposure to lethal dose 0.5 mg/ml): no viable cells
DAVG change of completely tethered bacterial cells (E. coli O157:H7; [3]): no change
DAVG change of loosely tethered bacterial cells (E. coli O157:H7; [3]): significant decrease
DAVG after lethal polymyxin B concentration (UPEC cells; control well, 0.5 mg/ml added after 75-min measurement, 227 nm before, p<0.05): 64 nm
Number of cells on the surface over 75 min (UPEC cells; polymyxin B 0.5-4 μg/ml, indicating growth inhibition): remained constant
Minimum bactericidal concentration at 75 min (MBC75 min) (UPEC cells; rapid AST, 75 min, 1×PBS): 4 µg/mL
